The subject of experiment [1] is IL-17AA-induced IL-17 signaling pathway. In words: Inhibition of IL-17AA-induced IL-17 signaling pathway in HEK-Blue IL-17 reporter cells (SEAP). The format is cell-based. As to conditions: Homo sapiens; HEK-Blue IL-17 cells, IL-17AA 2.5 ng/mL, 20 hours; read-out: IC50 for Inhibiting IL-AA Signaling. The source says: Example 43. Inhibition of IL-17AA-Induced IL-17 Signaling Pathway
(§1) Interleukin-17 (IL-17) reporter cell line (HEK-Blue IL-17, InvivoGen, Catalog Number hkb-i117) is created by genetically engineering human IL-17RA/IL-17RC heterodimeric receptor and downstream adapter protein ACT1 into human embryonic kidney 293 cells (HEK293). These cells also express secreted embryonic alkaline phosphatase (SEAP) reporter gene induced by NF-κB and AP-1. Therefore, IL-17AA can activate NF-κB and AP-1 signaling pathways inside the cells by binding to IL-17RA/RC on cell membrane, leading to expression of SEAP protein. After a colorimetric reaction between SEAP protein and Quanti-Blue solution, the absorbance at 620 nm is measured using a microplate reader (BioTek H1M, Agilent, Catalog Number SH1M-SN) to determine IL-17AA-activated signaling pathway.
(§2) In the experiment, HEK-Blue IL-17 cells were cultured at 37° C. under 5% CO2 conditions using the recommended medium from InvivoGen's instruction. Compounds were serially diluted starting from 10 μM. 4 μL of each compound solution was added to 32 μL of cells (10,000 cells) at 37° C. for 1 hour. After pre-incubation, 4 μL of IL-17AA with a final concentration of 2.5 ng/mL (Sino Biological, Catalog Number 12047-HNAS) was added to the cells, and incubation was continued for additional 20 hours. After incubation, 5 μL of cell culture supernatant was added to 45 μL of Quanti-Blue for the colorimetric reaction. The group without tested compound had the highest absorbance at 620 nm, and the group without IL-17AA had the lowest absorbance at 620 nm.
(§3) Therefore, the percentage of inhibition of tested compound was calculated as
(§4) Experimental results were analyzed using XLfit (IDBS) for 4-parameter nonlinear fitting analysis to provide the IC50 value for each tested compound (Table 1).

Another experiment deals with T1, IL-17AA and IL-17RA (Homo sapiens, UniProt Q16552).
T1 construct: purchased Sino Biological 12047-H07B (IL-17AA); 10895-H02H (IL-17RA)
T1 sequence (Q16552 24-155): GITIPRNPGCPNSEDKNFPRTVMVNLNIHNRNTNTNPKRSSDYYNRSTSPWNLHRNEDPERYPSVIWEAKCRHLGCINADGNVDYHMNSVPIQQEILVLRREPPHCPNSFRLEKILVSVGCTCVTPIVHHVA
In words: Competitive inhibition of human IL-17AA and IL-17RA binding (HTRF). As to conditions: recombinant IL-17AA (His-tag) and IL-17RA (hFc-tag); read-out: IC50 for Inhibiting IL-AA/IL-RA Binding. The method, then: Example 42. Competitive Inhibition of Human IL-17AA and IL-17RA Binding
Recombinant IL-17AA (His-tag, Catalog Number 12047-H07B) and IL-17RA (hFc-tag, Catalog Number 10895-H02H) were purchased from Sino Biological. In the experiment, 10 μL of IL-17AA (1 nM) or IL-17RA (1 nM) was added to 10 μL of anti-6His-Tb (0.4 nM, Revvity, Catalog Number 61HISTLF) or anti-human IgG-d2 (1 μg/mL, anti-human IgG-d2, Revvity, Catalog Number 61HFCDAF), respectively and incubated at room temperature for 1 hour. Compounds were serially diluted starting from 10 μM. 5 μL of each compound solution was incubated with 5 μL of a mixture of IL-17AA and anti-6His-Tb at room temperature for 2 hours. After pre-incubation, to which was added 10 μL of a mixture of IL-17RA and anti-human IgG-d2, and incubation was continued for additional 20 minutes. Subsequently, a microplate reader (Envision, PerkinElmer) was used to detect fluorescence intensity at 615 nm and 665 nm, and the ratio of intensity thereof indicates the degree of IL-17AA and IL-17RA interaction. The ratio of intensity in the absence of tested compound was the highest value of binding between IL-17AA and IL-17RA, and the ratio of intensity in the absence of IL-17AA was the lowest value.
as §3
Experimental results were analyzed using XLfit (IDBS) for 4-parameter nonlinear fitting analysis, to provide the IC50 value for each tested compound (Table 1).
(Time-resolved FRET reads energy transfer from a long-lived donor to a nearby acceptor.)

Experiment [2] has as its system IL-17AF-induced IL-17 signaling pathway. In words: Inhibition of IL-17AF-induced IL-17 signaling pathway. Format: cell-based. As to conditions: Homo sapiens; IL-17AF used instead of IL-17AA; read-out: IC50 for Inhibiting IL-AF Signaling.
Description: as §1, §2, §3, §4
Example 44. Inhibition of IL-17AF-Induced IL-17 Signaling Pathway
The same experimental procedure to Example […] was followed where IL-17AF was used instead of IL-17AA.

SMILES strings stand for the structures. Some results are limits rather than exact numbers.

`[2H]C([2H])([2H])n1nccc1C(=O)N[C@H](C(=O)Nc1ccc([C@H](C)[C@H](NC(=O)CC)c2ncnn2CC2CC2)cc1F)C(C1CC1)C1CC1` [Compound 87, N-((S)-1,1-dicyclopropyl-3-((4-((1S,2S)-1-(1-(cyclopropylmethyl)-1H-1,2,4-triazol-5-yl)-1-propionamidopropan-2-yl)-2-fluorophenyl)amino)-3-oxopropan-2-yl)-1-(methyl-d3)-1H-pyrazole-5-carboxamide]: the IC50 in experiment [1] is above 2000 nM; at IL-17AA and IL-17RA it was 1980 nM; in experiment [2], above 2000 nM.

Consider `COCC(=O)N[C@@H](c1nncn1CC1CC1)[C@@H](C)c1ccc(NC(=O)[C@@H](NC(=O)c2ccnn2C(C)C)C(C2CC2)C2CC2)c(F)c1` [Compound 4, N-((S)-1,1-dicyclopropyl-3-((4-((1R,2S)-1-(4-(cyclopropylmethyl)-4H-1,2,4-triazol-3-yl)-1-(2-methoxyacetamido)propan-2-yl)-2-fluorophenyl)amino)-3-oxopropan-2-yl)-1-isopropyl-1H-pyrazole-5-carboxamide], for which the IC50 in experiment [1] was 17 nM; at IL-17AA and IL-17RA, 10 nM; in experiment [2], 20 nM.

For `CCCn1cnc([C@H](NC(=O)COC)[C@@H](C)c2ccc(NC(=O)[C@@H](NC(=O)c3ccnn3CC)C(C3CC3)C3CC3)c(F)c2)n1` [Compound 30, N-((S)-1,1-dicyclopropyl-3-((2-fluoro-4-((1R,2S)-1-(2-methoxyacetamido)-1-(1-propyl-1H-1,2,4-triazol-3-yl)propan-2-yl)phenyl)amino)-3-oxopropan-2-yl)-1-ethyl-1H-pyrazole-5-carboxamide], the IC50 in experiment [1] came out at 32 nM; on IL-17AA and IL-17RA, 23 nM; in experiment [2], 66 nM.

As to `CCC(=O)N[C@@H](c1ncnn1CC1CC1)[C@@H](C)c1ccc(NC(=O)[C@@H](NC(=O)c2ccnn2C2CN(C)C2)C(C2CC2)C2CC2)c(F)c1` [Compound 73, N—((S)-1,1-dicyclopropyl-3-((4-((1R,2S)-1-(1-(cyclopropylmethyl)-1H-1,2,4-triazol-5-yl)-1-propionamidopropan-2-yl)-2-fluorophenyl)amino)-3-oxopropan-2-yl)-1-(1-methylazetidin-3-yl)-1H-pyrazole-5-carboxamide], the IC50 in experiment [1] was 153 nM; at IL-17AA and IL-17RA, 174 nM; in experiment [2] it was 180 nM.

As for `CCn1nccc1C(=O)N[C@H](C(=O)Nc1ccc([C@H](C)[C@@H](NC(=O)COC)c2ncnn2CCOC)cc1F)C(C1CC1)C1CC1` [Compound 40], the IC50 in experiment [1] was found to be 2.6 nM; on IL-17AA and IL-17RA, 7.4 nM; in experiment [2], 8.6 nM.

For the compound `CCn1nccc1C(=O)N[C@H](C(=O)Nc1ccc([C@H](C)[C@@H](NC(=O)COC)c2ncnn2CC2CC2)cc1F)C1CCC(C)CC1` (stereo partly drawn) [Compound 41, N-((S)-2-((4-((1R,2S)-1-(1-(cyclopropylmethyl)-1H-1,2,4-triazol-5-yl)-1-(2-methoxyacetamido)propan-2-yl)-2-fluorophenyl)amino)-1-((1R,4S)-4-methylcyclohexyl)-2-oxoethyl)-1-ethyl-1H-pyrazole-5-carboxamide], the IC50 in experiment [1] worked out at 11 nM; at IL-17AA and IL-17RA, 4.9 nM; in experiment [2], 16 nM.

With `Cc1nonc1C(=O)N[C@H](C(=O)Nc1ccc([C@H](C)[C@@H](NC(=O)CO)c2ncnn2CC2CC2)cc1F)C(C1CC1)C1CC1` [Compound 57, N-((S)-1,1-dicyclopropyl-3-((4-((1R,2S)-1-(1-(cyclopropylmethyl)-1H-1,2,4-triazol-5-yl)-1-(2-hydroxyacetamido)propan-2-yl)-2-fluorophenyl)amino)-3-oxopropan-2-yl)-4-methyl-1,2,5-oxadiazole-3-carboxamide], the IC50 in experiment [1] turned out to be 95 nM; on IL-17AA and IL-17RA it was 6.8 nM; in experiment [2] it was 88 nM.

In the case of `CCc1nonc1C(=O)N[C@H](C(=O)Nc1ccc([C@H](C)[C@@H](NC(=O)COC)c2ncnn2CC2CC2)cc1F)C(C1CC1)C1CC1` [Compound 34, N-((S)-1,1-dicyclopropyl-3-((4-((1R,2S)-1-(1-(cyclopropylmethyl)-1H-1,2,4-triazol-5-yl)-1-(2-methoxyacetamido)propan-2-yl)-2-fluorophenyl)amino)-3-oxopropan-2-yl)-4-ethyl-1,2,5-oxadiazole-3-carboxamide], the IC50 in experiment [1] came out at 2.2 nM; at IL-17AA and IL-17RA, 2.6 nM; in experiment [2] it was 3.2 nM.

In the case of `Cc1nonc1C(=O)N[C@H](C(=O)Nc1ccc([C@H](C)[C@@H](NC(=O)COC(F)(F)F)c2ncnn2CC2CC2)cc1F)C(C1CC1)C1CC1` [Compound 64, N-((S)-1,1-dicyclopropyl-3-((4-((1R,2S)-1-(1-(cyclopropylmethyl)-1H-1,2,4-triazol-5-yl)-1-(2-(trifluoromethoxy)acetamido)propan-2-yl)-2-fluorophenyl)amino)-3-oxopropan-2-yl)-4-methyl-1,2,5-oxadiazole-3-carboxamide], the IC50 in experiment [1] was 3.6 nM; on IL-17AA and IL-17RA, 1.1 nM; in experiment [2], 5.9 nM.

With `CCn1nccc1C(=O)N[C@H](C(=O)Nc1ccc([C@H](C)[C@@H](NC(=O)COC)c2nncn2C)cc1F)C(C1CC1)C1CC1` [Compound 6, N-((S)-1,1-dicyclopropyl-3-((2-fluoro-4-((1R,2S)-1-(2-methoxyacetamido)-1-(4-methyl-4H-1,2,4-triazol-3-yl)propan-2-yl)phenyl)amino)-3-oxopropan-2-yl)-1-ethyl-1H-pyrazole-5-carboxamide], the IC50 in experiment [1] stood at 146 nM; at IL-17AA and IL-17RA, 66 nM; in experiment [2], 516 nM.

As to `CCn1nccc1C(=O)N[C@H](C(=O)Nc1ccc([C@H](C)[C@@H](NC(=O)COC)c2nccn2CC2CC2)cc1F)C(C1CC1)C1CC1` [Compound 38, N-((S)-1,1-dicyclopropyl-3-((4-((1R,2S)-1-(1-(cyclopropylmethyl)-1H-imidazol-2-yl)-1-(2-methoxyacetamido)propan-2-yl)-2-fluorophenyl)amino)-3-oxopropan-2-yl)-1-ethyl-1H-pyrazole-5-carboxamide], the IC50 in experiment [1] stood at 2.9 nM; on IL-17AA and IL-17RA, 7.5 nM; in experiment [2], 7 nM.

Take `CCn1nccc1C(=O)N[C@H](C(=O)Nc1ccc([C@H](C)[C@@H](NC(=O)COC)c2nncn2C2CC2)cc1F)C(C1CC1)C1CC1` [Compound 12, N-((S)-1,1-dicyclopropyl-3-((4-((1R,2S)-1-(4-cyclopropyl-4H-1,2,4-triazol-3-yl)-1-(2-methoxyacetamido)propan-2-yl)-2-fluorophenyl)amino)-3-oxopropan-2-yl)-1-ethyl-1H-pyrazole-5-carboxamide]: the IC50 amounted to 91 nM in experiment [1]; 49 nM at IL-17AA and IL-17RA; 320 nM in experiment [2].

Turning to `CCC(=O)N[C@@H](c1ncnn1CC1CC1)[C@@H](C)c1ccc(NC(=O)[C@@H](NC(=O)c2ccnn2C(C)C)C(C2CC2)C2CC2)c(F)c1` [Compound 44, N-((S)-1,1-dicyclopropyl-3-((4-((1R,2S)-1-(1-(cyclopropylmethyl)-1H-1,2,4-triazol-5-yl)-1-propionamidopropan-2-yl)-2-fluorophenyl)amino)-3-oxopropan-2-yl)-1-isopropyl-1H-pyrazole-5-carboxamide], the IC50 in experiment [1] came out at 4.4 nM; at IL-17AA and IL-17RA, 1.9 nM; in experiment [2] it was 29 nM.

These data come from US20260083708A1, “IL-17 MODULATORS AND USES THEREOF” (NNOCARE PHARMA INC., priority 2024, published 2026).
